Here are results for five compounds from patent EP0558661B1, “POLYAZAMACROCYCLIC COMPOUNDS FOR COMPLEXATION OF METAL IONS” (BOARD OF REGENTS THE UNIVERSITY OF TEXAS SYSTEM, priority 1990, dated 1992).

Usually Kd stands for the constant that tells how readily two partners part at equilibrium.

The nature of data set [1]: KD of the DOTEP calcium complex by 31P NMR and pH potentiometry. The data set is classed as binding. To be noted: Ca(DOTEP); at pH 7.4. On the procedure: The ^31P spectrum shown in Figure 9 was obtained on a solution containing approximately 1 mM Ca^2+ and 3 mM DOTEP in an aqueous solution at physiological pH. Clearly, the ^31P resonances of the free and bound forms of DOTEP have distinct chemical shifts and neither overlaps with the ^31P resonances of metabolites normally observed in tissue.
The value of KD at pH 7.4 reported above was determined by ^31P NMR (measuring the free and bound integrals as a function of pH in solutions containing known amounts of [Ca^2+]total and [DOTEP]total) and by pH potentiometry.

A short description of data set [2]: Solubility as observed on the isolated product. The data set is classed as physicochemical. On the procedure:
9.20 g of NOTPDE (14.15 mmol) was mixed with 2.50 g of NaOH in 9 ml H2O) and after 2 hours the entire reaction mixture was boiled until a clear solution was obtained (approximately 5 minutes). The solution was cooled to room temperature and was allowed to stand overnight. The crystals formed were filtered off from the viscous mother liquor using a pressure filter funnel with a coarse porosity grade filter disc. The crystals were washed once with cold absolute ethanol, three times with absolute ethanol-diethylether (1:1) mixture and finally with diethyl ether. The crystals of Na3NOTPME were dried in dry nitrogen stream at 25°C for 2 hours. Traces of H2O and ethanol were removed upon vacuum drying (10 mm Hg) NOTPME for 5 hours at 50°C. […] The yield of pure NOTPME was 40.8% (3.24 g, 5.77 mmol).
NOTPME trisodium salt (178.63 mg, 0.318 mmol) was dissolved in 4.0 ml anhydrous chloroform (freshly distilled from over P4O10) and 120 microliter acetyl chloride was added. The solution was stirred at room temperature for 24 hours in a tightly closed vessel. The solution was then evaporated under dry nitrogen atmosphere to a yellowish, very viscous oil. To the oil anhydrous ether was added and NOTPME-AC (precipitated as a sodium chloride adduct) was filtered off and dried at 35-40°C under dry nitrogen. NOTPME-AC (234.24 mg, 92.3% calculated on the basis of NOTPME-AC.3NaCl formula weight) is an extremely hygroscopic, water sensitive powder.
NOTPME trisodium salt (164.82 mg, 0.294 mmol) and benzoyl chloride (105 microliter, 0.883 mmol) were reacted in 4.0 ml anhydrous chloroform at room temperature for 24 hours. The rection mixture was worked up with identical method than was used in the synthesis of NOTPME-AC. The product NOTPME-B was get as a sodium chloride adduct (204.32 mg, 70.7% calculated on the basis of NOTPME-B.3NaCl formula weight). NOTPME-B is a very hygroscopic, water sensitive powder. It is soluble in water and chloroform and DMSO.

Data set [3] is described as follows: KD determination by 31P NMR (integration of free and metal bound resonances). The data set is classed as binding. On the procedure: ^1H NMR data was obtained on JEOL FX-200 NMR spectrometer using a 10 mm probe operating at room temperature. Studies on solutions of NOTPME and its complexes were performed on a General Electric GN-500 NMR spectrometer. A 10 mm broad band probe was tuned to 202.4 MHz for ^31P detection. Shifts for NOTPME and its complexes were measured using 85% H3PO4 as an external standard. Probe temperatures were accurate to ± 0.5°C.
Samples of NOTPME used for KD determinations by NMR consisted of 115 mM KCl, 20 mM NaCl and 10 mM HEPES buffered with Tris base at pH 7.4. Varying concentrations (typically 0.5 to 10 mM) of Mg^2+, Ca^2+ or Zn^2+ were added to the sample and the resulting ^31P NMR spectrum obtained. Resonance areas were determined by integration of peaks using the GE software.
The area of resonances corresponding to free and metal bound NOTPME were obtained by integration and their concentrations estimated.

A short description of data set [4]: Protonation constants by potentiometric titration. The data set is classed as physicochemical. To be noted: 0.1 m tetramethylammonium chloride. On the procedure:
(§1) Potentiometric titrations were conducted at 25°C using a Corning Ion Analyzer (model 250) and a Metrohm Dorsimat automatic burette (Brinkman Instruments). […] Na3NOTPME was dissolved in 0.1 M tetramethylammonium chloride, the pH adjusted to low pH value with HCl and titrated with 0.098 M KOH. KOH was standardized by potentiometric titration against potassium hydrogen phthalate and stored under N2 atmosphere. The hydrogen ion activity coefficient and Kw were determined separately in these same salt solutions. Stability constants of Zn(NOTPME)^-, Mg(NOTPME)^-, and Ca(NOTPME)^- were determined by potentiometric titration of solutions containing 1:1 ratio of metal and ligand. In all of the titrations, samples were covered by a layer of cyclohexane to exclude CO2.
(§2) Protonation constants (KHiL) and stability constants (KML, and KMHL) are defined by the following equations: KHiL = [Hi L] / {[Hi-1 (L] {H)^+ ]) [formula] KML = [ML] / {[M] [L]) [formula] KMHL (= [MHL] / {[ML] [H)^+ ]} [formula] Protonation and stability constants were obtained from the potentiometric data using a simplex non-linear algorithm run on an IBM PC.
A representative potentiometric titration curve for NOTPME in 0.1 M tetramethylammonium chloride and 25°C is illustrated in Figure 2. […] The phosphorous shifts are very sensitive to protonation of the nitrogens in the polyaza ring, similar to that observed for the parent phosphonate NOTP [17]. The first two protonations (log K = 11.8, 3.65) result in ^31P shifts to low frequency which is consistent with protonation at two ring nitrogens. […] These differences in pK2 may reflect differences in the ability of the phosphonate versus the phosphonate monoester side chains to form internal hydrogen bonds with the protonated nitrogens.

The subject of a further data set is RBCs. The data set is described as follows: Red blood cell loading of NOTPME and intracellular free Mg2+ by 31P NMR. The data set is classed as cell-based, Human. On the procedure: Fresh whole blood was obtained placed in heparinized tubes and centrifuged at 3000 g for 6 min. to remove the buffy coat. RBCs were then washed three times in 5 mM phosphate buffered saline at pH 7.4. RBCs at 50% hematocrit were suspended in the loading medium containing 120 mM NaCl, 5 mM MgCl2, 10 mM HEPES pH 7.4, 10 mM glucose, and 10 mM NOTPME and incubated at 37°C for 12 hours. No lysis of RBCs were observed during the loading procedure. The RBCs were centrifuged and the supernatant discarded. The RBCs were washed twice with phosphate buffered saline at pH 7.4 before suspension in an isotonic medium.
Figure 6 illustrates one application of NOTPME to detect intracellular free Mg^2+ in RBCs. NOTPME loaded RBCs (Figure 6.b) were prepared by incubating RBCs at 37°C in a loading medium containing NOTPME in the presence of 5mM MgCl2 for 12 hours. NOTPME loading into RBCs was not observed in the absence of MgCl2 in the loading medium.
As in the in vitro studies, two resonances were observed corresponding to free and Mg^2+ bound NOTPME in RBCs. […] Since intracellular free Mg^2+ levels in RBCs normally range between 0.2 - 0.3 mM [12,19,20], the high concentration of intracellular free Mg^2+ observed in this experiment must have resulted from transport of Mg^2+ as a complex with NOTPME. Upon addition of the divalent cation ionophore A23187 to the suspension medium, an increase in intracellular free Mg^2+ concentration (to 1.90 mM) was observed (data not shown).

Data set [5] is described as follows: Stability constants by potentiometric titration. The data set is classed as binding. To be noted: for log KML: potentiometry at 25°C, 1:1 metal and ligand, 0.1 M tetramethylammonium chloride. On the procedure: as §1, §2
The test system of the next data set is red blood cells. The data set is described as follows: Red blood cell loading of NOTPME derivatives. In kind it is cell-based. To be noted: during the time course of NMR measurements, after loading with the derivatives. On the procedure: NOTPME derivatives used are the benzoyl and acetyl derivatives. Fresh whole blood was obtained in heparinized tubes and centrifuged at 3000g for 3 minutes to remove the buffy coat. Packed red blood cells are then washed three times in 5 mM phosphate buffered saline at pH 7.4. Red blood cells at 50% hematocrit were suspended in the NOTPME derivative containing loading medium. The loading medium contained 130 mM NaCl, 5 mM NOTPME derivative (benzoyl or acetyl derivative), 1 mM adenine, 10 mM glucose, and 10 mM HEPES at pH 7.4. Red cells in the above loading medium were incubated at 25°C for 1 hour. No lysis of red blood cells were observed during the loading procedure. After loading with NOTPME derivatives for one hour, the red cell suspension was centrifuged and the supernatant discarded. The red cells are washed twice with 5 mM phosphate buffered saline at pH 7.4 before suspension in an isotonic saline for NMR measurements. […] After NMR measurements the sample was centrifuged and the supernatant analyzed for any leakage of NOTPME. No leak of NOTPME was observed during the time course of NMR measurements. thus, it is clear that these NOTPME derivatives enter the red cells, get hydrolyzed to NOTPME and remain inside red cells.

The conditions of data set [6]: 0.1 m hcl.
Experimental: In this experiment, Gd(DOTEP)^- and Gd(DOTA)^- were dissolved in 0.1M HCl and their decomposition to free Gd^3+ and free ligand were followed by water relaxation measurements.

Read-outs that look alike come from different tables or passages of the source.

As for `CCP(=O)(O)CN1CCN(CP(=O)(O)CC)CCN(CP(=O)(O)CC)CCN(CP(=O)(O)CC)CC1` [DOTEP], the Kd in data set [1] came to 0.011 mM.
In the case of `CCOP(=O)(O)CN1CCN(CP(=O)(O)OCC)CCN(CP(=O)(O)OCC)CC1` [NOTPME, 1,4,7-Triazacyclononane-N,N',N"-tris(methylenephosphonatemonoethylester)], in data set [2], the solubility in chloroform result is “fairly soluble”. Moreover, the solubility in water entry in data set [2] was “readily soluble”. Also, the Kd in data set [3] (Ca^2+ complex, 115 mM KCl, 20 mM NaCl, 10 mM HEPES, pH 7.4, read-out: KD (at 25°X)) was 50 mM; in data set [3] (Ca^2+ complex, pH 7.4, read-out: KD (at 37°C)) it was 47.6 mM; in data set [3] (Mg^2+ complex, 31P NMR, 115 mM KCl, 20 mM NaCl, 10 mM HEPES, pH 7.4, read-out: KD (at 25°X)) it was 5.77 mM; in data set [3] (Mg^2+ complex, 31P NMR, pH 7.4, read-out: KD (at 37°C)) it was 4.66 mM; in data set [5] (Zn^2+ complex, estimated from log KML = 15.4, the ligand pK values and the proton concentration at pH 7.4) it was 0.01 nM. For the same compound, the “higher affinity for Mg^2+ than for Ca^2+” value in data set [3] (at physiological pH values) was 10 fold. In addition, the pKa in data set [4] (25°C, read-out: pK1 (first protonation constant, log K1)) was 11.8; in data set [4] (25°C, read-out: pK2 (second protonation constant, log K2)) it was 3.65; in data set [4] (25°C, read-out: pK3), 1.4; in data set [4] (protonations of the phosphonate ester oxygens) it was below 1.4. For the same compound, the “lysis of RBCs during the loading procedure” value in the data set on RBCs (10 mM NOTPME, 5 mM MgCl2, 37°C, 12 hours, 50% hematocrit) is “No lysis”. Further, in the data set on RBCs (in the absence of MgCl2 in the loading medium), the “loading into RBCs” value is “not observed”. Besides, the “loading into red blood cells” value in the data set on RBCs (in the presence of Mg^2+) is recorded as “readily loaded”. For the same compound, the figures for the “log KML” value in data set [5] (Ca^2+) and in data set [5] (Mg^2+) were 5.1 and 6.3, respectively. The “leakage of NOTPME into the supernatant” value in the data set on red blood cells is reported as “No leak”.
Regarding `CCOP(=O)(CN1CCN(CP(=O)(OCC)OC(C)=O)CCN(CP(=O)(OCC)OC(C)=O)CC1)OC(C)=O` (centres unmarked) [NOTPME-AC, 1,4,7-triazacyclononane-N,N',N"-tris(methylenephosphonatemonoethylesteracetic acid anhydride)], in data set [2], the “solubility in DMSO” value is given as “readily soluble”, the solubility in chloroform result was “readily soluble” and the solubility in water entry is given as “readily soluble”.
`CCOP(=O)(CN1CCN(CP(=O)(OCC)OC(=O)c2ccccc2)CCN(CP(=O)(OCC)OC(=O)c2ccccc2)CC1)OC(=O)c1ccccc1` (centres unmarked) [NOTPME-B]: in data set [2], the “solubility in DMSO” value is recorded as “soluble”, the solubility in chloroform result was “soluble” and the solubility in water entry was “soluble”.
For Gd(DOTA)^-, the half-lives for decomposition entry in data set [6] is “approximately 110 hrs”.
